Assay results from US20250282776A1, “Bicyclic TLR7 Agonists and Uses Thereof” (Bristol-Myers Squibb Company, priority 2024, published 2025).

Key:
human TLR7 (hTLR7) = target: T1, human TLR7 (hTLR7) (Homo sapiens, UniProt Q9NYK1); test: Human TLR7 agonist activity assay (HEK-Blue TLR7 SEAP reporter); format: cell-based; conditions: HEK-Blue TLR7 cells, 18 h incubation, Quanti-Blue, OD 620 nm, some values average of multiple measurements
T1 construct: host or cells: HEK-Blue TLR7 cells (engineered human embryonic kidney cells)
T1 sequence (Q9NYK1 27-1049): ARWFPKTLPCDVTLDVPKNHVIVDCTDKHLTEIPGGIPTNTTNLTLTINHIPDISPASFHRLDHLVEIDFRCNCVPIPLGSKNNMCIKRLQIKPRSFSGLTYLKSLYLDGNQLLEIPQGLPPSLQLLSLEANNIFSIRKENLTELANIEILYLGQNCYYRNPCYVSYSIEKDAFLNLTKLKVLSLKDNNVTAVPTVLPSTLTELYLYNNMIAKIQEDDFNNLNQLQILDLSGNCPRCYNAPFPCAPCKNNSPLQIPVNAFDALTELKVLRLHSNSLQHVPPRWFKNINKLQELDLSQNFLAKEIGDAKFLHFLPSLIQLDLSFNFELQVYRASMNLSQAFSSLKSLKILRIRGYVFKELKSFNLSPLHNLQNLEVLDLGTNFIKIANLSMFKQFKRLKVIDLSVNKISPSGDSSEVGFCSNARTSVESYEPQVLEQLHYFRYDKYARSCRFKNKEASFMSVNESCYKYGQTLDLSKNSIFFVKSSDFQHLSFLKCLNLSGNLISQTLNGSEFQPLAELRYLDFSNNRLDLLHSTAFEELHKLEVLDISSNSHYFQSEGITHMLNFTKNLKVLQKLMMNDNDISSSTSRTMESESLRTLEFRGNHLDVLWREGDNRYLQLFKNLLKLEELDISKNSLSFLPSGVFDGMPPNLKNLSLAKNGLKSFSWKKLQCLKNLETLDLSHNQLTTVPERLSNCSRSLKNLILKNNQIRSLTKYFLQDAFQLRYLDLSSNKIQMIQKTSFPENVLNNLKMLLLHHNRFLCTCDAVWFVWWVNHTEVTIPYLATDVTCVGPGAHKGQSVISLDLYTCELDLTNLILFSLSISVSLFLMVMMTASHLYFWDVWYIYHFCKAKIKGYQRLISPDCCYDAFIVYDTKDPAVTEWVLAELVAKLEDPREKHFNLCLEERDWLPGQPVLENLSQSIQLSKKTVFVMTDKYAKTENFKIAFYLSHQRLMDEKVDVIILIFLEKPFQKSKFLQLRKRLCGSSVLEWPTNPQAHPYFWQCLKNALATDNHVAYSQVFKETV
Experimental: (§1) This procedure describes a method for assaying human TLR7 (hTLR7) and human TLR8 (hTLR8) agonist activity of the compounds disclosed herein.
HEK-Blue™ TLR7 cells were added to each well of a 384-well tissue-culture plate (15,000 cells per well) and incubated 16-18 h at 37° C., 5% CO2. Compounds (100 nL) were dispensed into wells containing the HEK-Blue™ TLR cells and the treated cells were incubated at 37° C., 5% CO2. After 18 h, ten microliters 5 of freshly prepared Quanti-Blue™ reagent (Invivogen) was added to each well and incubated for 30 min (37° C., […]). SLAP levels were measured using an Envision plate reader (OD=620 nm). The half maximal effective concentration values (ECSO; compound concentration which induced a response halfway between the assay baseline and maximum) were calculated. Some of the reported activities were the average of multiple measurements.

human TLR8 (hTLR8) = target: T2, human TLR8 (hTLR8) (Homo sapiens, UniProt Q9NR97); test: Human TLR8 agonist activity assay (measured in a similar manner); format: cell-based; conditions: HEK-Blue TLR cells, SEAP reporter, measured in a similar manner to TLR7; some values average of multiple measurements
T2 construct: expressed in transfected cells
T2 sequence (Q9NR97 27-1041): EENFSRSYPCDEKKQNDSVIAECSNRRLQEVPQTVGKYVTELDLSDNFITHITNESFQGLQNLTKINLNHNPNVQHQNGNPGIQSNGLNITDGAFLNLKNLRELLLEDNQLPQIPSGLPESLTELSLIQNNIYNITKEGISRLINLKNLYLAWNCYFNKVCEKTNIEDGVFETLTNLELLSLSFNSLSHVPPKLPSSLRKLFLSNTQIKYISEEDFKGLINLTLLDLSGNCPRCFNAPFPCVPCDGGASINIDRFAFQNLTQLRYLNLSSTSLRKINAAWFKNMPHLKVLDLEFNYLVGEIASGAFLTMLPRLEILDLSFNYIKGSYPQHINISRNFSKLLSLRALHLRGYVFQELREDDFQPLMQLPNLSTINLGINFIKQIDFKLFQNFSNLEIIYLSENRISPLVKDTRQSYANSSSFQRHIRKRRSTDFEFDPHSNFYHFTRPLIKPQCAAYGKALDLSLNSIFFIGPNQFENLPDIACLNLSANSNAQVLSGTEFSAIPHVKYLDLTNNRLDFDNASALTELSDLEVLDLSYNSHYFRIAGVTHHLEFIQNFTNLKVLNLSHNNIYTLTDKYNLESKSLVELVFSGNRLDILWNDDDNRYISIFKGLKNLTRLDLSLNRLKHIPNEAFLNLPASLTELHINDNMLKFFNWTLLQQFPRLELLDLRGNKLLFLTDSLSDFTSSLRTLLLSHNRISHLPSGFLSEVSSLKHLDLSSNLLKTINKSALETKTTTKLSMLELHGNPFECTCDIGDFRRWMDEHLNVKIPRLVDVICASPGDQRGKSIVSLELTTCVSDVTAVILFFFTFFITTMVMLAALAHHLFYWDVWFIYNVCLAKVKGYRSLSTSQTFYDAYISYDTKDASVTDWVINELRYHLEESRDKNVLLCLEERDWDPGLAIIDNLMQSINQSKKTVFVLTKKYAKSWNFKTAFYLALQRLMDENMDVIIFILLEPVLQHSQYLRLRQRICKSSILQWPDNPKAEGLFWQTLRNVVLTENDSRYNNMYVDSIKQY
Experimental: as §1
HEK-Blue™ TLR7 cells were added to each well of a 384-well tissue-culture plate (15,000 cells per well) and incubated 16-18 h at 37° C., 5% CO2. Compounds (100 nL) were dispensed into wells containing the HEK-Blue™ TLR cells and the treated cells were incubated at 37° C., 5% CO2. After 18 h, ten microliters 5 of freshly prepared Quanti-Blue™ reagent (Invivogen) was added to each well and incubated for 30 min (37° C., […]). SLAP levels were measured using an Envision plate reader (OD=620 nm). […] Some of the reported activities were the average of multiple measurements.
TLR8 activity was measured in a similar manner.

SMILES | EC50 (human TLR7 (hTLR7)) | EC50 (human TLR8 (hTLR8))
CCCCN(CCO)c1nc(N)nc2cn(Cc3ccc(CN4CCN(C)CC4)cc3OC)nc12 [Compound 13] | 0.733 µM | 1.13 µM
CCCCN(c1nc(N)nc2cn(Cc3ccc(CN[C@@H]4CCOC4)cc3OC)nc12)C(C)CO (stereo partly drawn) [Compound 86] | 0.229 µM | 0.311 µM
CCCCNCc1ccc(Cn2cc3nc(N)nc(N(CCO)CCCC)c3n2)c2ncccc12 [Compound 45] | 0.28 µM | 0.205 µM
CCCCN(CCO)c1nc(N)nc2cn(Cc3ccc(CNC4CCC4)c4cccnc34)nc12 [Compound 46, 2-((5-Amino-2-((5-((cyclobutylamino)methyl)quinolin-8-yl)methyl)-2H-pyrazolo[4,3-d]pyrimidin-7-yl)(butyl)amino)ethan-1-ol] | 0.326 µM | 0.36 µM
CCCCNCc1ccc(Cn2cc3nc(N)nc(N(CCO)CCCC)c3n2)c(C(F)F)c1 [Compound 127] | 1.8 µM | 2.42 µM
CCCCN(CCO)c1nc(N)nc2cn(Cc3ccc(CNC4CCOCC4)c4nccnc34)nc12 [Compound 206] | 1.9 µM | 1.19 µM
CCCCN(CCO)c1nc(N)nc2cn(Cc3c(F)cc(CNCCO)cc3OC)nc12 [Compound 72] | 0.738 µM | 0.835 µM
CCCCN(c1nc(N)nc2cn(Cc3c(F)cc(C4CCN(C5CC6(COC6)C5)CC4)cc3OC)nc12)C(C)CO (stereo not drawn) [Compound 179] | 0.121 µM | 0.213 µM
CCCCN(CCO)c1nc(N)nc2cn(Cc3c(F)cc(C4CCN(CC(N)=O)CC4)cc3OC)nc12 [Compound 41] | 0.251 µM | 0.858 µM
CCCCN(CCO)c1nc(N)nc2cn(Cc3ccc(CN[C@H]4C[C@H](OC)C4)n4ncnc34)nc12 [Compound 174] | 0.757 µM | 1.45 µM
CCCCN(CCO)c1nc(N)nc2cn(Cc3c(F)cc(CNC4(CO)CC4)cc3OC)nc12 [Compound 91] | 1.22 µM | 2.08 µM
CCCCN(CCO)c1nc(N)nc2cn(Cc3ccc(CNC4CCN(C)CC4)c4cccnc34)nc12 [Compound 65] | 2.09 µM | 2.38 µM
CCCCN(CCO)c1nc(N)nc2cn(Cc3cccc4c3OCCN4C(=O)CNC3CCC3)nc12 [Compound 134] | 2.24 µM | 1.86 µM
CCCCN(CCO)c1nc(N)nc2cn(Cc3c(F)cc(C4=CCNCC4)cc3OC)nc12 [Compound 15] | 0.688 µM | 2.51 µM
CCCCN(CCO)c1nc(N)nc2cn(Cc3ccc(CNC4CCOC4)cc3OC)nc12 (stereo not drawn) [Compound 25] | 0.43 µM | 0.36 µM
CCCCN(CCO)c1nc(N)nc2cn(Cc3ccc(CN[C@@H]4CCOC4)n4ccnc34)nc12 [Compound 187, (R)-2-((5-Amino-2-((5-(((tetrahydrofuran-3-yl)amino)methyl)imidazo[1,2-a]pyridin-8-yl)methyl)-2H-pyrazolo[4,3-d]pyrimidin-7-yl)(butyl)amino) ethan-1-ol] | 0.674 µM | 0.86 µM
CCCCN(CCO)c1nc(N)nc2cn(Cc3ccc(CN[C@@H]4CCCN(C(=O)CN)C4)c4cccnc34)nc12 [Compound 198] | 1.31 µM | 2.27 µM

SMILES | EC50 (human TLR7 (hTLR7)) | EC50 (human TLR8 (hTLR8))
CCCCN(CCO)c1nc(N)nc2cn(Cc3ccc(CN4C[C@H]5COC[C@H]5C4)cc3OC)nc12 [Compound 11] | 0.732 µM | 0.727 µM
CCCCN(CCO)c1nc(N)nc2cn(Cc3ccc(CNC4CC5(COC5)C4)cc3)nc12 [Compound 159] |  | 1.19 µM
CCCCN(CCO)c1nc(N)nc2cn(Cc3ccc(CNC4CCC(F)(F)CC4)c4scnc34)nc12 [Compound 203] |  | 2.4 µM
CCCCN(CCO)c1nc(N)nc2cn(Cc3ccc(CNCCO)cc3C(F)F)nc12 [Compound 129] |  | 2.71 µM
CCCCN(CCO)c1nc(N)nc2cn(Cc3ccc(CNC4CCOC(C)(C)C4)c4cn[nH]c34)nc12 (stereo not drawn) [Compound 209] |  | 2.85 µM
CCC[C@@H](CO)N(C)c1nc(N)nc2cn(Cc3ccc(CN4CCCC4)cc3OC)nc12 [Compound 87] |  | 1.82 µM
CCCCN(CCO)c1nc(N)nc2cn(Cc3ccc(CNC4(COC)CCOCC4)cc3OC)nc12 [Compound 165] |  | 0.46 µM
CCCN(CCO)c1nc(N)nc2cn(Cc3ccc(CNC4CCC4)cc3OC)nc12 [Compound 43] |  | 1.74 µM
CCCCN(CCO)c1nc(N)nc2cn(Cc3ccc(CNC4CCOC(C)C4)cc3OC)nc12 (stereo not drawn) [Compound 126] |  | 0.689 µM
CCCCN(CCO)c1nc(N)nc2cn(Cc3ccc(CNCC4CC5(CCC5)C4)c4cccnc34)nc12 [Compound 67] |  | 2.16 µM
CCCCN(CCO)c1nc(N)nc2cn(Cc3ccc(CNC4CCOCC4)c4ncsc34)nc12 [Compound 210] |  | 1.86 µM
CCCCN(CCO)c1nc(N)nc2cn(Cc3ccc(CNC4(C)CCC4)cc3C(F)F)nc12 [Compound 167] |  | 1.61 µM
CCCCN(CCO)c1nc(N)nc2cn(Cc3ccc(CNCCO)cc3)nc12 [Compound 160] |  | 1.97 µM
CCCCN(CCO)c1nc(N)nc2cn(Cc3ccc(CN[C@H]4CCOC4)c4nccnc34)nc12 [Compound 205] |  | 1.34 µM
CCCCN(CCO)c1nc(N)nc2cn(Cc3cnc(CN[C@H]4C[C@H](OC)C4)cc3OC)nc12 [Compound 124] |  | 1.87 µM
CCCCN(CCO)c1nc(N)nc2cn(Cc3ccc(CNC4CCOCC4)c4cn[nH]c34)nc12 [Compound 204] |  | 1.27 µM
